One experiment has as its target Adenosine receptor A2a (Homo sapiens, UniProt P29274). The experiment can be described thus: Selectivity interaction (Panel of kinases, GPCRs, ion channels and transporters (enzymatic assay)) EUB0000266bCl ADORA2A.
Experiment [1] deals with Tyrosine-protein kinase FRK (Homo sapiens) (UniProt P42685). The experiment can be described thus: Selectivity interaction (Upstate Kinase Profiler service (Millipore)) EUB0000056c FRK. To be noted: at 1 µM.
Experiment [2] addresses Cyclin-dependent kinase 13 (Homo sapiens, UniProt Q14004). To be noted: at 10 µM.
Experiment [3] addresses Tyrosine-protein kinase receptor UFO (Homo sapiens) (UniProt P30530). To be noted: at 10 µM.
Experiment [4] addresses Angiopoietin-1 receptor (Homo sapiens) (UniProt Q02763). To be noted: at 10 µM.
Experiment [5] addresses Histone-lysine N-methyltransferase ASH1L (Homo sapiens) (UniProt Q9NR48). The experiment can be described thus: Selectivity interaction (Transferase panel (protein, RNA, and DNA methyltransferases. and EP300 (acetyltransferase))) EUB0000270b ASH1L.
Experiment [6] concerns the target T1, Serine/threonine-protein kinase Nek2 (Homo sapiens) (UniProt P51955).
T1 sequence (whole entry): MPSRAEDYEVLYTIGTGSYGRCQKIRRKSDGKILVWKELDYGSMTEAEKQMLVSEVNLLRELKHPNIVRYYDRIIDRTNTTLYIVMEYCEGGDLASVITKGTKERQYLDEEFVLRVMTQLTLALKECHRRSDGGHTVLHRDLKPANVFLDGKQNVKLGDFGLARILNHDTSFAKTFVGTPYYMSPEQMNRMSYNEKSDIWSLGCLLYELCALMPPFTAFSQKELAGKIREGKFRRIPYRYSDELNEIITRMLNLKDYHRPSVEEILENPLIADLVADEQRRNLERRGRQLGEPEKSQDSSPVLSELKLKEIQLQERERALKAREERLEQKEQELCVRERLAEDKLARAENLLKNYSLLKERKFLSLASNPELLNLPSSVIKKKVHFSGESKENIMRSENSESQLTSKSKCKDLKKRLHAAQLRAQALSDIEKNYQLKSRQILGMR
Briefly: Selectivity interaction (KinomeScan (DiscoverX)) EUB0000045b NEK2.

For experiment [7], the target named is T2, Membrane-associated tyrosine- and threonine-specific cdc2-inhibitory kinase (Homo sapiens) (UniProt Q99640).
T2 sequence (whole entry): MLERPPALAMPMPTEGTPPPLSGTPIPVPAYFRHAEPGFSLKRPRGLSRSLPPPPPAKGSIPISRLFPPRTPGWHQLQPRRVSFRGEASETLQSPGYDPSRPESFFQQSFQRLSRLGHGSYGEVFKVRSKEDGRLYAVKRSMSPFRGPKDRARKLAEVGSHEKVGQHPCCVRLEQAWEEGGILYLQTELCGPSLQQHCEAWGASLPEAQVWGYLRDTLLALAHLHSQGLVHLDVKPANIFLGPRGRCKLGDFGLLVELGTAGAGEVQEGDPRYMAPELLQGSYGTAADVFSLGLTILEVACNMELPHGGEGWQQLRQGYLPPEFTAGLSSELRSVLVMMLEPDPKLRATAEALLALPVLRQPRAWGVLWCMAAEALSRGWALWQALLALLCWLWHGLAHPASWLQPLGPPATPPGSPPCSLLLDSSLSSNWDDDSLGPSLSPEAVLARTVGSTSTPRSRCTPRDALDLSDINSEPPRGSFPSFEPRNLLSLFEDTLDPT
The experiment can be described thus: Selectivity interaction (KinomeScan (DiscoverX)) EUB0000045b PKMYT1.

For experiment [8], the target named is Serine/threonine-protein kinase SIK2 (Homo sapiens) (UniProt Q9H0K1). Briefly: Selectivity interaction (Kinase panel (Z-LYTE Assay)) EUB0001632a SIK2. To be noted: at 10 µM.
Sequence of Serine/threonine-protein kinase SIK2 (Homo sapiens) (Q9H0K1 whole entry, looked up): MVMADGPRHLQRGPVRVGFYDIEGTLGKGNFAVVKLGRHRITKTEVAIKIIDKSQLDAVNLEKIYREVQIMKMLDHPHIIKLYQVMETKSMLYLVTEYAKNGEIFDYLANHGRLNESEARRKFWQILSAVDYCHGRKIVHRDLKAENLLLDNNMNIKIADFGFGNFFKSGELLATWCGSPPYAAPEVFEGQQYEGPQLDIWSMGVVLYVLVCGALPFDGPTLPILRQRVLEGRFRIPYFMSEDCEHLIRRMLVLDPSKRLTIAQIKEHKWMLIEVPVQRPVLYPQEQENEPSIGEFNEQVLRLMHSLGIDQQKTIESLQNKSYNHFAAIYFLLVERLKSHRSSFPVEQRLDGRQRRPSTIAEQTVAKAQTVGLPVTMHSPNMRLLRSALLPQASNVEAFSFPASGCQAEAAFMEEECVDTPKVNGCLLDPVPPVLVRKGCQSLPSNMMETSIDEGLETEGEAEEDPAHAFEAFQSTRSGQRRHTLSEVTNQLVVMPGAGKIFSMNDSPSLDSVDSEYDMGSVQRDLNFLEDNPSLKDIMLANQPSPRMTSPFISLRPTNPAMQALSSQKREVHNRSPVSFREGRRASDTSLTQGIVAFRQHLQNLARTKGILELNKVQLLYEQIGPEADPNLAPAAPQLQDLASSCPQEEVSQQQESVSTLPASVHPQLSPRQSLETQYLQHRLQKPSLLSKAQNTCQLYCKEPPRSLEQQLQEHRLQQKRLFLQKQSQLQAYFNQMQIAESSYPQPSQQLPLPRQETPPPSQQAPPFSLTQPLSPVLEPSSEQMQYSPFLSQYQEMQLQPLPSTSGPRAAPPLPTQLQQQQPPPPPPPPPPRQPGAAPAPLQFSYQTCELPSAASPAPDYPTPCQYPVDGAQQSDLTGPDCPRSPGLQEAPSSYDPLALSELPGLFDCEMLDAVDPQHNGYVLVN
The target of experiment [9] is T3, Serine/threonine-protein kinase ULK3 (Homo sapiens) (UniProt Q6PHR2).
T3 sequence (whole entry): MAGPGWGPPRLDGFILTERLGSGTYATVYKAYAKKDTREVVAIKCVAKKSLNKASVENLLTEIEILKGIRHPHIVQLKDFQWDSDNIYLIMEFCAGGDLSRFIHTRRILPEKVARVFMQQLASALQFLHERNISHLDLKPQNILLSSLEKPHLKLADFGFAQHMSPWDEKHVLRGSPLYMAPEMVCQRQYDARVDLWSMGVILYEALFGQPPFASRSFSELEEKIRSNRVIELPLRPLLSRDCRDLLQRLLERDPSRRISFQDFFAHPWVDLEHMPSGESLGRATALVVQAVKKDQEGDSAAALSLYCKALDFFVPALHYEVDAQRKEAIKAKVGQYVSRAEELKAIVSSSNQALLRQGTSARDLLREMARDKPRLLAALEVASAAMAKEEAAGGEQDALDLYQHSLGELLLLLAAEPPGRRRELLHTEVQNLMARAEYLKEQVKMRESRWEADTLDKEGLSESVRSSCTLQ
Briefly: Selectivity interaction (LanthaScreen Eu Kinase Binding Assay) EUB0001632a ULK3. To be noted: at 10 µM. Background: Time-resolved FRET reads energy transfer from a long-lived donor to a nearby acceptor.

The target of experiment [10] is Serine/threonine-protein kinase pim-3 (Homo sapiens) (UniProt Q86V86). The experiment can be described thus: Selectivity interaction (KinomeScan (DiscoverX)) EUB0000607a PIM3. The note with it: at 10 µM.
The target of experiment [11] is Calcium/calmodulin-dependent protein kinase kinase 2 (Homo sapiens) (UniProt Q96RR4). Briefly: Selectivity interaction (ActivX KiNativ screen (kinase selectivity in THP-1 cell lysates)) EUB0000639a CAMKK2. The note with it: lysate, at 0.01 µM. It counts as subcellular.
Sequence of Calcium/calmodulin-dependent protein kinase kinase 2 (Homo sapiens) (Q96RR4 2-588 limits assumed): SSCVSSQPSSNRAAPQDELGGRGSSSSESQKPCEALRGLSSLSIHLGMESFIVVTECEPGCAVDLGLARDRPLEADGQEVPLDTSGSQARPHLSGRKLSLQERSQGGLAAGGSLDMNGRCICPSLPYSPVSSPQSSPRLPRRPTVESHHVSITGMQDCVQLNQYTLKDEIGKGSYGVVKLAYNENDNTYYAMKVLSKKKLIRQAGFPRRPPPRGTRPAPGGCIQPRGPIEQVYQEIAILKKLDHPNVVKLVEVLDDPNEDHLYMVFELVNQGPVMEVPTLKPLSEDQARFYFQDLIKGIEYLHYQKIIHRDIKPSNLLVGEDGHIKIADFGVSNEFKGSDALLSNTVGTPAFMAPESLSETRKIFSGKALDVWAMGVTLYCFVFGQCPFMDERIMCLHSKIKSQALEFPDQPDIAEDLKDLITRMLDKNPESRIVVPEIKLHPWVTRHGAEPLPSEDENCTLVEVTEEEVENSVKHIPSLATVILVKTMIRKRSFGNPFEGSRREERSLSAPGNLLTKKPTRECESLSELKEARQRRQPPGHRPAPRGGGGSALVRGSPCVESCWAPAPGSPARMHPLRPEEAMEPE
Experiment [12] addresses Tyrosine-protein kinase JAK1 (Homo sapiens, UniProt P23458). The experiment can be described thus: Selectivity interaction (Kinase panel (33PanQinase(R) Activity Assay)) EUB0000877a JAK1.
Experiment [13] has as its target T4, Mitogen-activated protein kinase 13 (Homo sapiens) (UniProt O15264).
T4 sequence (whole entry): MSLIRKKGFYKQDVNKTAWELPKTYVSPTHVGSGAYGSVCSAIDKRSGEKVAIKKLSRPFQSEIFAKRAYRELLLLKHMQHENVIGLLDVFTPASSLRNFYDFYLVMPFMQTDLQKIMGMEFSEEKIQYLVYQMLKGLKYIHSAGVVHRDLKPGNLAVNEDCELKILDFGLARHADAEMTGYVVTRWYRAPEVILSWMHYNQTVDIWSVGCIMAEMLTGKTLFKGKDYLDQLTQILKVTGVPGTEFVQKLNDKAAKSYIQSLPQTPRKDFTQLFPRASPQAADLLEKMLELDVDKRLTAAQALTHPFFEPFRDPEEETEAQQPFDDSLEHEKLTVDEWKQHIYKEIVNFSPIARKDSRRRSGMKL
Briefly: Selectivity interaction (KinomeScan (DiscoverX)) EUB0000595a MAPK13. The note with it: at 10 µM.

The target of experiment [14] is Casein kinase I isoform gamma-1 (Homo sapiens) (UniProt Q9HCP0). The experiment can be described thus: Selectivity interaction (KinomeScan (DiscoverX)) EUB0001619a CSNK1G1. To be noted: at 1 µM.

Sequence of Adenosine receptor A2a (P29274 whole entry): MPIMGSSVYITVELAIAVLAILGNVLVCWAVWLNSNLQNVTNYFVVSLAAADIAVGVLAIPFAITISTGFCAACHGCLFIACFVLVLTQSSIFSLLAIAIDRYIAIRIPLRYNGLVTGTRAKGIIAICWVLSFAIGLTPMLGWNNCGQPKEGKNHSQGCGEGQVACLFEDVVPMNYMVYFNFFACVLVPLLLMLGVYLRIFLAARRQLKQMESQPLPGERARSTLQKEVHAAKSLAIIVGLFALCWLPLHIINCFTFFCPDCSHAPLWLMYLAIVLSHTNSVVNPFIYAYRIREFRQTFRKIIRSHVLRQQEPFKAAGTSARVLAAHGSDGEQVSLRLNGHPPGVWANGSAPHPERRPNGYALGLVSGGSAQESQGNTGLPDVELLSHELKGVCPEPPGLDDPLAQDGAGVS
Sequence of Cyclin-dependent kinase 13 (Q14004 whole entry, looked up): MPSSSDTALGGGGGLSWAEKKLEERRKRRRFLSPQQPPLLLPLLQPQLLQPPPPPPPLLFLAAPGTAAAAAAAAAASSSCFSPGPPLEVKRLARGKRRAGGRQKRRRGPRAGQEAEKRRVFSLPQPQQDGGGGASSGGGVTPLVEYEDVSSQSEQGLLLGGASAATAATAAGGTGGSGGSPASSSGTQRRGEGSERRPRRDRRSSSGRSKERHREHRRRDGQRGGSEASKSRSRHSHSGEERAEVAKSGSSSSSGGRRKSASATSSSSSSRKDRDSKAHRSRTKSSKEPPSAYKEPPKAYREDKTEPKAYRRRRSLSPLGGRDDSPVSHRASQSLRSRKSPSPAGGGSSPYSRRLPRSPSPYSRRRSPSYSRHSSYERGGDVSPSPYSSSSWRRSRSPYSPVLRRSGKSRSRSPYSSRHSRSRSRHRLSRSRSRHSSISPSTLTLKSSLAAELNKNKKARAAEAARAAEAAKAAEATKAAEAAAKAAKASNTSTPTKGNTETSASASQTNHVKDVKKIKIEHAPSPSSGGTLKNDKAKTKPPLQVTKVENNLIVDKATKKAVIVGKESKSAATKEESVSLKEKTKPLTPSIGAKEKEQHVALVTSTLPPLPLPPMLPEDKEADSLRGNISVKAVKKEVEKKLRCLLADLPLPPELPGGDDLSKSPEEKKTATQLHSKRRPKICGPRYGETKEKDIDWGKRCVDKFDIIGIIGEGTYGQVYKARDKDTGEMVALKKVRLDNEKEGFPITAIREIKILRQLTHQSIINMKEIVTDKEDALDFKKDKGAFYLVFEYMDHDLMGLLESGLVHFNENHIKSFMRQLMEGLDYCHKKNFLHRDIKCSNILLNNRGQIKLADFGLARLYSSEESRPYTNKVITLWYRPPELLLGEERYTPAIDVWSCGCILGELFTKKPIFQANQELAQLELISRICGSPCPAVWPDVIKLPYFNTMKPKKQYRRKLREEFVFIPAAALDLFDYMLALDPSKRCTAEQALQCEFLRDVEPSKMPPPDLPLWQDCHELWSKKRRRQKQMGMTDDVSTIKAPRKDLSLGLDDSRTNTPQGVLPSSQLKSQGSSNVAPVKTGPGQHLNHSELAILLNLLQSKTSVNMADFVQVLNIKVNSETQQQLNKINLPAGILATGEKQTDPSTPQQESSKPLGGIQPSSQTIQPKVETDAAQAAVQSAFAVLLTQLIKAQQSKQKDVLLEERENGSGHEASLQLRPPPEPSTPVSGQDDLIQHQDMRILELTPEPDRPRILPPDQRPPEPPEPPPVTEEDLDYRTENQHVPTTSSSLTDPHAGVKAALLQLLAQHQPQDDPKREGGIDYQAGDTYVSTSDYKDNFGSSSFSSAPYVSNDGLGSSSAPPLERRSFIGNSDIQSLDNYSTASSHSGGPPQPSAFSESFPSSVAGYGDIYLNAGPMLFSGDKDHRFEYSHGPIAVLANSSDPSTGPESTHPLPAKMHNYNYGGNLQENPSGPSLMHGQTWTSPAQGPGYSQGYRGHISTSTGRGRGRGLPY
Sequence of Tyrosine-protein kinase JAK1 (P23458 whole entry): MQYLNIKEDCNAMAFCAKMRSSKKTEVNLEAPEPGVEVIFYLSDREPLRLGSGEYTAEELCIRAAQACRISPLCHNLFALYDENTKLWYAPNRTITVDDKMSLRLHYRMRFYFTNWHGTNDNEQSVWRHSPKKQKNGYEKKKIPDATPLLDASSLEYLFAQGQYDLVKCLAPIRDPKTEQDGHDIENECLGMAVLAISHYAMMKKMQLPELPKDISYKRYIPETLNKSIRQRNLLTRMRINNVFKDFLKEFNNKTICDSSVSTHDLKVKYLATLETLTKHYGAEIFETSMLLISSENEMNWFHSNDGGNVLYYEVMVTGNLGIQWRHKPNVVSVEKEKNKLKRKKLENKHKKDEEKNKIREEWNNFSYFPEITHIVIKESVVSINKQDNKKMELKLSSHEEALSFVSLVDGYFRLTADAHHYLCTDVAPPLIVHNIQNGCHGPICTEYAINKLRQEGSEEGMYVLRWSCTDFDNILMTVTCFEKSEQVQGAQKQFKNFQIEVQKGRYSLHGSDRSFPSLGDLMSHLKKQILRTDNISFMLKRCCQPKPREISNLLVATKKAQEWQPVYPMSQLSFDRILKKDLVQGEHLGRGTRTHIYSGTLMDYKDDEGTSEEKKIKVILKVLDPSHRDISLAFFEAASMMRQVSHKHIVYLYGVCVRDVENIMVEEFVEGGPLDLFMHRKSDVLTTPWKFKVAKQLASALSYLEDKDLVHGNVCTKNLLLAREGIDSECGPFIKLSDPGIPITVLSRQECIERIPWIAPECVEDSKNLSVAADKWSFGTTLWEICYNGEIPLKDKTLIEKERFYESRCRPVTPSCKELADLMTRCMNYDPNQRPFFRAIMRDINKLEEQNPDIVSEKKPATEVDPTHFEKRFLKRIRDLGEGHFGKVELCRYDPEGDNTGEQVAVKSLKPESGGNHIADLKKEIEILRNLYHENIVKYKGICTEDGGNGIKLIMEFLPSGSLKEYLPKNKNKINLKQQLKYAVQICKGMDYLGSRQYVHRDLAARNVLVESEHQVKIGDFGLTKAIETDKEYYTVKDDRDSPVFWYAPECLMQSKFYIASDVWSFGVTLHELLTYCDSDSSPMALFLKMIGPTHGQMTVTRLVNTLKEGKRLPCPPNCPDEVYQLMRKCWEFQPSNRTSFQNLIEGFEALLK

For the molecule `CCn1c(-c2nc3cc(C(=O)N4CCCC(N)C4)ccc3n2C)cc2ccccc21` (stereo not drawn), the pXC50 at Adenosine receptor A2a is < 4.5 M. `Cc1ccc(-c2ccc3c(ccc4sc5c(c43)NC[C@@H](C)NC5=O)n2)cn1`: the % of inhibition in experiment [1] was 32%. As to `Cc1cc([C@@H](C)Nc2ccccc2C(=O)O)c2nc(N3CCOCC3)cc(=O)n2c1` [AZD-6482], the % of control stood at 88% in experiment [2] and 86% in [3]. Take `CCN(CC)CCCCNc1ncc2cc(-c3cc(OC)cc(OC)c3)c(NC(=O)NC(C)(C)C)nc2n1`: the % of control in [4] was determined as 100%. For `Cc1cc(CN)cc(C)c1-c1ncn(C)c1-c1cncn1C`, the % activity in experiment [5] (at 1 µM) was > 90%; in experiment [5] (at 10 µM), > 80%. As to `C=CC(=O)Nc1cc(-n2c(=O)ccc3cnc4ccc(-c5ccc(NS(C)(=O)=O)cc5)cc4c32)ccc1C`, the % of control came out at 79% in experiment [6] (at 1 µM), 85% in [6] (at 10 µM), 77% in experiment [7] (at 1 µM) and 100% in experiment [7] (at 10 µM).

With `Cn1cc(-n2cnc3c(NCc4nc5cc(Cl)c(Cl)cc5[nH]4)nc(N4CCOCC4)nc32)cn1`, the % of control in experiment [8] turned out to be 5.35%. Also, the % of inhibition in experiment [9] is -290%. `CNC(=O)Nc1ccc(-c2nc(N3CC4CCC(C3)O4)c3cnn(C4CCC5(CC4)OCCO5)c3n2)cc1` yielded a % of control in [10] of 100%.

Turning to `CC[C@@H]1[C@H](F)C(=O)N[C@@H]1COc1nccc2cc(C(N)=O)c(OC)cc12` [ZIMLOVISERTIB], the % of inhibition in experiment [11] was -0.8%. For `CCC(=O)N1CC[C@H](Nc2ncnc3c2CN(c2cnc(OC)c(C(F)(F)F)c2)CC3)C1` [LENIOLISIB], the IC50 (as a rule, the point on the concentration scale where inhibition reaches its midpoint) in experiment [12] was > 10 µM. `COCC(=O)NC/C=C/c1ccc2ncnc(Nc3ccc(Oc4ccc(C)nc4)c(C)c3)c2c1` [CP-724714] registered a % of control in experiment [13] of 100%. Take `N#Cc1cccc(-c2c[nH]c3ncnc(N4CCOCC4)c23)c1`: the % of control in [14] worked out at 100%.

These data come from ChEMBL document CHEMBL5465560, “Selectivity Literature for EUbOPEN Chemogenomic Library” (2024).
